The record followed here is the NIST ThermoML archive (doi:10.1021/je200140m).

The conditions of series [1]: Liquid, Closed cell (Static) method.
The nature of series [2]: refractive index (Na D-line) (dimensionless). The following applies: 101.33 kPa, Liquid, Standard Abbe refractometry.

The structures appear in SMILES notation. Numbers after ± are expanded uncertainties.

By vapor or sublimation pressure is commonly meant the pressure of vapour in equilibrium with the condensed phase. For `COC` [dimethyl ether], the “vapor or sublimation pressure” value in series [1] (308.1 K) was determined as 788 ± 2 kPa; in series [1] (308.13 K) it was 785.2 ± 1.8 kPa; in series [1] (335.65 K) it was 1539.6 ± 2.6 kPa.

As a reminder, the refractive index is the speed of light in vacuum divided by its phase velocity in the sample. `CCCCCC` [hexane]: the refractive index in series [2] (298.1 K) is reported as 1.37514 ± 0.00073. Further, the “vapor or sublimation pressure” value was found to be 30.8 ± 0.8 kPa in series [1] (308.12 K) and 83 ± 1 kPa in series [1] (335.66 K).

As to `CO` [methanol], the refractive index in series [2] (293.1 K) was determined as 1.32853 ± 0.00073. Besides, the “vapor or sublimation pressure” value in series [1] (358.93 K) is recorded as 221.4 ± 1 kPa.

As to `COC=O` [methyl methanoate], the refractive index in series [2] (293.1 K) is 1.34359 ± 0.00076. Besides, the “vapor or sublimation pressure” value in series [1] (308.11 K) is recorded as 114.7 ± 0.9 kPa; in series [1] (358.92 K), 550.4 ± 1.4 kPa.
